Assays:
[1] = molecular target: T1, HER-2 (Homo sapiens, UniProt P04626); experiment: Kinase HotSpot activity assay, single dose in duplicate; assay type: biochemical; details: 10 µM; 10 μM compound; 10 μM ATP; value is residual kinase activity, not inhibition
T1 construct: gene ERBB2; Reaction Biology Corp. Kinase HotSpot service

[2] = molecular target: T2, CDK-1/cyclin B (Homo sapiens, UniProt P06493); experiment: as above; assay type: biochemical; details: 10 µM; 10 μM compound; 10 μM ATP; value is residual kinase activity, not inhibition
T2 construct: gene CDK1; Reaction Biology Corp. Kinase HotSpot service; with G2/mitotic-specific cyclin-B1
T2 sequence (P06493 whole entry): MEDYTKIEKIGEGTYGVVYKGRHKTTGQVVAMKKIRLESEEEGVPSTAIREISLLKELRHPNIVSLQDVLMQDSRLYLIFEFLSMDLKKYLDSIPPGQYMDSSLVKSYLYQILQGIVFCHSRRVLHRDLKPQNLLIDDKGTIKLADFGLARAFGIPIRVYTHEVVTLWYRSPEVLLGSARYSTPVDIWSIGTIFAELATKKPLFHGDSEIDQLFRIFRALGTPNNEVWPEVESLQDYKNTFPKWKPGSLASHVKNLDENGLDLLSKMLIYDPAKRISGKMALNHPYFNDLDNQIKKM
T2 sequence (P14635 whole entry partner): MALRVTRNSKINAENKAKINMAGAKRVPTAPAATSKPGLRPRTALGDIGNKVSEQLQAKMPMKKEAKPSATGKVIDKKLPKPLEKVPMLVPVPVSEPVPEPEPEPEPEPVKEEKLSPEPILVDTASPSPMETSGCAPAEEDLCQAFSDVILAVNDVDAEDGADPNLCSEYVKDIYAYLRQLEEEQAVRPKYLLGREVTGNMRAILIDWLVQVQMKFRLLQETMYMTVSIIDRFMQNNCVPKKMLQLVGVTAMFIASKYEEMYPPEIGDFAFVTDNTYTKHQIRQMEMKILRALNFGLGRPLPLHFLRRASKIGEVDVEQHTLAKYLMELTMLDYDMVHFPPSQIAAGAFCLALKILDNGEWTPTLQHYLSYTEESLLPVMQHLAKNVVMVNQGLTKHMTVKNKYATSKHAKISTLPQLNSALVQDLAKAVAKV

T1 sequence (P04626 676-1255 limits assumed): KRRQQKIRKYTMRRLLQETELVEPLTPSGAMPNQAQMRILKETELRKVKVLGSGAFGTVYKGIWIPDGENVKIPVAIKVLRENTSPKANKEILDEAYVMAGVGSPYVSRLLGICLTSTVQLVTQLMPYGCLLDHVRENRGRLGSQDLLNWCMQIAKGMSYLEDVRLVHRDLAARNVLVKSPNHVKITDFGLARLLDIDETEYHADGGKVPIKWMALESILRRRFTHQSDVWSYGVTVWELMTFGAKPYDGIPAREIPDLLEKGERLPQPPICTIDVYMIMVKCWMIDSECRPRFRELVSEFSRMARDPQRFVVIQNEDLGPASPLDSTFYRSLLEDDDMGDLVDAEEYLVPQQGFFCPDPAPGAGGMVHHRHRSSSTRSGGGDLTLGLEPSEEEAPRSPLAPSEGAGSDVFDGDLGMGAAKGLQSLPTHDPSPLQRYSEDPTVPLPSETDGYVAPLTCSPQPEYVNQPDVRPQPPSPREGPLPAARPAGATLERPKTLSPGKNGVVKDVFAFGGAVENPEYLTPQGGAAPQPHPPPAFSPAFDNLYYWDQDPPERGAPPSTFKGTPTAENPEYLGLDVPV

O=C(Nc1ccc2c(ccn2C(=O)c2cccc(F)c2)c1)c1ccnnc1 [15l]
% Activity / HER-2 [1]: 52%
% Activity / CDK-1/cyclin B [2]: 51%

Source: paper PMC8433807, “Scaffold Repurposing of In-House Small Molecule Candidates Leads to Discovery of First-in-Class CDK-1/HER-2 Dual Inhibitors: In Vitro and In Silico Screening” (Molecules, 2021)
